Legend:
[1] = Cytotoxicity against human MT4 cells incubated for 5 days by Cell Titer Glo assay; assay type: toxicity, cell-based; conditions: time 5 day
[2] = Distribution coefficient, log D of compound measured after 30 mins by HPLC/UV analysis; assay type: physicochemical; conditions: octanol/water
[3] = test system: Respiratory syncytial virus; assay: Antiviral activity against RSV A2 infected in human HEp-2 cells incubated for 4 days by Cell Titer Glo assay; assay type: functional, organism-based; conditions: A2, HEp-2, 96 h
[4] = test system: Respiratory syncytial virus; assay: Antiviral activity against RSV A2 infected in Normal human bronchial epithelial cells incubated for 3 days by ONE-Glo luciferase assay; assay type: functional, organism-based; conditions: A2, Epithelial cell, 72 h
[5] = Prodrug conversion in Normal human bronchial epithelial cells assessed as ((2R,3S,4R,5S)-5-(4-aminopyrrolo[2,1-f][1,2,4]triazin-7-yl)-2-cyano-3,4-dihydroxytetrahydrofuran-2-yl)methyl tetrahydrogen triphosphate formation measured per million cells at 10 uM incubated for 2 hrs by LC-MS/MS analysis; assay type: ADME, cell-based; conditions: epithelial cell
[6] = Cytotoxicity against human Hep-2 cells incubated for 4 to 5 days by Cell Titer Glo assay; assay type: toxicity, cell-based; conditions: time 4-5 day
Human metapneumovirus = assay: Anti-viral activity against hMPV CAN99-81 (A1 genotype) infected in rhesus monkey LLC-MK2 cells incubated for 3 to 5 days; assay type: functional, organism-based
[7] = target: T1, DNA-directed RNA polymerase, mitochondrial (Homo sapiens, UniProt O00411); assay: Inhibition of recombinant human POLRMT assessed as single-nucleotide incorporation rate at 500 uM measured for 60 mins in presence of ATP by imaging analysis relative to control; design: scale not given: the % may be the effect or the level left
T1 sequence (O00411 whole entry): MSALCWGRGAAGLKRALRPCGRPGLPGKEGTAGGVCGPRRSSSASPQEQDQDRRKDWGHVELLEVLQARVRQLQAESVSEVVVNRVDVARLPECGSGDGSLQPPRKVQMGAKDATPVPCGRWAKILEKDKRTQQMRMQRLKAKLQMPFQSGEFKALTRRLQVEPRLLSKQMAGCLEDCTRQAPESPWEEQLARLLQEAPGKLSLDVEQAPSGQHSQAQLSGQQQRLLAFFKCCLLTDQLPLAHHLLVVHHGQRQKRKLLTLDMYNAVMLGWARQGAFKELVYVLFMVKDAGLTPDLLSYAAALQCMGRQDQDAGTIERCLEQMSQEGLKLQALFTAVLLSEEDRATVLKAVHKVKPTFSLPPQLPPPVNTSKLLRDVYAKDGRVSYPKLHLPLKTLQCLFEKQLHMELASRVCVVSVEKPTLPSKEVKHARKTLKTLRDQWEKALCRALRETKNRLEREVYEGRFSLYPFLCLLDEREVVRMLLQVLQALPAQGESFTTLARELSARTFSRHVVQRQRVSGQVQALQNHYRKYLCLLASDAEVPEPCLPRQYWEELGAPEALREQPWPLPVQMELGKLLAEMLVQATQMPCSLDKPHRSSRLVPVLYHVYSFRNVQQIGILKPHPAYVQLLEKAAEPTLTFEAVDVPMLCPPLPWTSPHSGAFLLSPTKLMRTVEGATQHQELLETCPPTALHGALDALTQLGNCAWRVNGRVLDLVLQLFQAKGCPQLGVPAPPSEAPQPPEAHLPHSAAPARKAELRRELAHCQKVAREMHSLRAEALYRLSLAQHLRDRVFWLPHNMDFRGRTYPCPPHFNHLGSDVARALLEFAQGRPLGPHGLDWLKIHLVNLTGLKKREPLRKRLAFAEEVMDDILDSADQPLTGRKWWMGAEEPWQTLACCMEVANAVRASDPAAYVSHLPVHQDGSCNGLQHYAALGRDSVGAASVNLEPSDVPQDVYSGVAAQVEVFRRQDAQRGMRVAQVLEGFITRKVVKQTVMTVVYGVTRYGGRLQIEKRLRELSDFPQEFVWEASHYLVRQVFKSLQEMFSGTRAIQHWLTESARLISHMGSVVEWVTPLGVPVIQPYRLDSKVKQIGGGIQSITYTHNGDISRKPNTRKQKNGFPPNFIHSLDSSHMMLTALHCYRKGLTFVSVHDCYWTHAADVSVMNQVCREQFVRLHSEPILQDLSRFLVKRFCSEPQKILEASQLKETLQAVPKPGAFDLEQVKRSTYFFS

Enterovirus A71 = assay: Anti-viral activity against EV-71 (H) infected in human RD cells by MTS assay; assay type: functional, organism-based; conditions: Enterovirus A
enterovirus D68 = assay: Anti-viral activity against EV-D68 (18952) infected in human RD cells by MTS assay; assay type: functional, organism-based; conditions: Enterovirus D, 18952, RD
[8] = Inhibition of RSV ribonucleoprotein complex in presence of [alpha-32P]ATP by Phosphor imaging analysis; design: species or system Respiratory syncytial virus
Homo sapiens [9] = organism: Homo sapiens; assay: Inhibition of recombinant human DNA Pol-gamma assessed as single-nucleotide incorporation rate at 50 uM measured for 60 mins in presence of dATP by imaging analysis relative to control; design: scale not given: the % may be the effect or the level left
[10] = target: T1, DNA-directed RNA polymerase, mitochondrial; assay: Inhibition of recombinant human POLRMT by Phosphor imaging analysis
Homo sapiens [11] = organism: Homo sapiens; assay: Inhibition of recombinant human DNA Pol-alpha assessed as single-nucleotide incorporation rate at 50 uM measured for 60 mins in presence of dATP by imaging analysis relative to control; design: scale not given: the % may be the effect or the level left
Influenza A virus = assay: Anti-viral activity against Influenza A (H1N1) infected in MDCK cells by MTS assay; assay type: functional, organism-based; conditions: H

SMILES	CC50 at 120 h [1]	logD at 0.5 h [2]	EC50 [3]	EC50 [4]	CC50 [6]	further results
CC(=O)O[C@H]1[C@H](c2ccc3c(N)ncnn23)O[C@](C#N)(CO[P@@](=O)(N[C@@H](C)C(=O)OC2CCCCC2)Oc2ccccc2)[C@H]1OC(C)=O	29.8 µM	2.9	0.206 µM	0.023 µM	> 49 µM	Drug metabolism [5]: 40 pM
NC(=O)c1ncn([C@@H]2O[C@H](CO)[C@@H](O)[C@H]2O)n1 [RIBAVIRIN]						EC50 (Human metapneumovirus): 34.8 µM
C[C@]1(COP(=O)(O)OP(=O)(O)OP(=O)(O)O)O[C@@H](c2ccc3c(N)ncnn23)[C@H](O)[C@@H]1O						Activity [7]: 3.2%
COC(=O)[C@H](C)N[P@](=O)(OC[C@@]1(C#N)O[C@@H](c2ccc3c(N)ncnn23)[C@H](O)[C@@H]1O)Oc1ccccc1	> 38 µM	1.1	0.122 µM	0.295 µM	> 50 µM	Drug metabolism [5]: 15 pM
CC(C)S(=O)(=O)n1c(N)nc2ccc(/C(=N/O)c3ccccc3)cc21 [ENVIROXIME]						EC50 (Enterovirus A71): 0.02 µM; EC50 (enterovirus D68): 0.22 µM
CC(C)C(=O)O[C@H]1[C@H](c2ccc3c(N)ncnn23)O[C@](C#N)(CO[P@@](=O)(N[C@@H](C)C(=O)OC2CCCCC2)Oc2ccccc2)[C@H]1OC(=O)C(C)C	8.7 µM	4	0.06 µM	0.017 µM	18.1 µM	Drug metabolism [5]: 170 pM
COC(=O)C(C)N[P@](=O)(OC[C@@]1(C#N)O[C@@H](c2ccc3c(N)ncnn23)[C@H](OC(C)=O)[C@@H]1OC(C)=O)Oc1ccccc1 (some centres undefined)	10.6 µM	2	0.127 µM	0.051 µM	> 42 µM	
C[C@H](N[P@](=O)(OC[C@@]1(C#N)O[C@@H](c2ccc3c(N)ncnn23)[C@H](O)[C@@H]1O)Oc1ccccc1)C(=O)OC1CCCCC1	> 50 µM	2.2	0.148 µM	0.141 µM	> 100 µM	Drug metabolism [5]: 13 pM
Nc1ncnn2c([C@@H]3O[C@@](CO)(CCl)[C@@H](O)[C@H]3O)ccc12	> 50 µM		> 50 µM	> 25 µM	> 38 µM	
CCCOC(=O)[C@H](C)N[P@](=O)(OC[C@@]1(C#N)O[C@@H](c2ccc3c(N)ncnn23)[C@H](OC(=O)CC)[C@@H]1OC(=O)CC)Oc1ccccc1	7.65 µM	2.8	0.041 µM	0.056 µM	27.3 µM	Drug metabolism [5]: 165 pM
CCC(=O)O[C@H]1[C@H](c2ccc3c(N)ncnn23)O[C@](C#N)(CO[P@@](=O)(N[C@@H](C)C(=O)OC2CCCCC2)Oc2ccccc2)[C@H]1OC(=O)CC	17.1 µM	3.5	0.06 µM	0.041 µM	33.9 µM	
Nc1ncnn2c([C@@H]3O[C@H](CO)[C@@H](O)[C@H]3O)ccc12	< 0.01 µM				0.037 µM	
CCCOC(=O)[C@H](C)N[P@](=O)(OC[C@@]1(C#N)O[C@@H](c2ccc3c(N)ncnn23)[C@H](OC(=O)C(C)C)[C@@H]1OC(=O)C(C)C)Oc1ccccc1	4.92 µM	3.3	0.036 µM	0.046 µM	15.7 µM	Drug metabolism [5]: 402 pM
[N-]=[N+]=N[C@]1(COP(=O)(O)OP(=O)(O)OP(=O)(O)O)O[C@@H](c2ccc3c(N)ncnn23)[C@H](O)[C@@H]1O						IC50 [8]: 0.12 µM; Activity [7]: 132%; Activity (Homo sapiens [9]): 0.62%; IC50 [10]: 1 µM; Activity (Homo sapiens [11]): 0%
C[C@H](N[P@@](=O)(OC[C@@]1(C#N)O[C@@H](c2ccc3c(N)ncnn23)[C@H](O)[C@@H]1O)Oc1ccccc1)C(=O)OC1CCCCC1	> 50 µM		3.11 µM	0.63 µM	> 50 µM	
CCC(=O)O[C@H]1[C@H](c2ccc3c(N)ncnn23)O[C@](C#N)(CO[P@@](=O)(NC(C)C(=O)OC)Oc2ccccc2)[C@H]1OC(=O)CC (some centres undefined)	3.33 µM	2.2	0.092 µM	0.019 µM	30 µM	Drug metabolism [5]: 384 pM

SMILES	CC50 at 120 h [1]	logD at 0.5 h [2]	EC50 [3]	EC50 [4]	CC50 [6]	further results
C[C@]1(CO)O[C@@H](c2ccc3c(N)ncnn23)[C@H](O)[C@@H]1O	> 50 µM		25.3 µM	> 50 µM	> 50 µM	
CC(C)OC(=O)[C@H](C)N[P@](=O)(OC[C@@]1(C#N)O[C@@H](c2ccc3c(N)ncnn23)[C@H](O)[C@@H]1O)Oc1ccccc1	> 57 µM	1.3	0.391 µM	0.933 µM	> 50 µM	
C=C[C@]1(COP(=O)(O)OP(=O)(O)OP(=O)(O)O)O[C@@H](c2ccc3c(N)ncnn23)[C@H](O)[C@@H]1O						Activity [7]: 0.96%
CCOC(=O)[C@H](C)N[P@](=O)(OC[C@@]1(C#N)O[C@@H](c2ccc3c(N)ncnn23)[C@H](O)[C@@H]1O)Oc1ccccc1	28.7 µM	1.1	0.095 µM	0.932 µM	> 100 µM	
N#C[C@]1(CO)O[C@@H](c2ccc3c(N)ncnn23)[C@H](O)[C@@H]1O	> 50 µM		6.83 µM	6.23 µM	> 50 µM	
NC(=O)c1nc(F)cnc1O [FAVIPIRAVIR]						EC50 (Influenza A virus): 5.87 µM
N#C[C@]1(COP(=O)(O)OP(=O)(O)OP(=O)(O)O)O[C@@H](c2ccc3c(N)ncnn23)[C@H](F)[C@@H]1O						IC50 [8]: 0.086 µM; Activity [7]: 0.03%; Activity (Homo sapiens [9]): 2.3%; IC50 [10]: 115 µM; Activity (Homo sapiens [11]): 8.7%
[N-]=[N+]=N[C@]1(CO)O[C@@H](c2ccc3c(N)ncnn23)[C@H](O)[C@@H]1O	> 50 µM		2.02 µM	3.59 µM	> 50 µM	
CCC(CC)OC(=O)[C@H](C)NP(=O)(OC[C@@]1(C#N)O[C@@H](c2ccc3c(N)ncnn23)[C@H](O)[C@@H]1O)Oc1ccccc1 (some centres undefined)	40.1 µM	2.1	0.029 µM	0.054 µM	> 93 µM	
C=C[C@]1(CO)O[C@@H](c2ccc3c(N)ncnn23)[C@H](O)[C@@H]1O	> 50 µM		> 50 µM	> 50 µM	> 50 µM	
C[C@H](N[P@](=O)(OC[C@@]1(C#N)O[C@@H](c2ccc3c(N)ncnn23)[C@H](O)[C@@H]1O)Oc1ccccc1)C(=O)OC1CCOCC1	> 57 µM	1.3	1.49 µM	> 4.3 µM	> 50 µM	
N#C[C@]1(COP(=O)(O)OP(=O)(O)OP(=O)(O)O)O[C@@H](c2ccc3c(N)ncnn23)[C@H](O)[C@@H]1O						IC50 [8]: 0.05 µM; Activity [7]: 0.8%; Activity (Homo sapiens [9]): 0%; IC50 [10]: > 200 µM; Activity (Homo sapiens [11]): 0%
CCCOC(=O)[C@H](C)N[P@](=O)(OC[C@@]1(C#N)O[C@@H](c2ccc3c(N)ncnn23)[C@H](O)[C@@H]1O)Oc1ccccc1	10.3 µM	1.2	0.055 µM	0.168 µM	> 50 µM	
Nc1ncnn2c([C@@H]3O[C@](CCl)(COP(=O)(O)OP(=O)(O)OP(=O)(O)O)[C@@H](O)[C@H]3O)ccc12						IC50 [8]: 1.1 µM; Activity [7]: 0.1%
N#C[C@]1(CO)O[C@@H](c2ccc3c(N)ncnn23)[C@H](F)[C@@H]1O	> 50 µM			2.31 µM	> 100 µM	
